Experimental data as given in patent US11357756B2, “Anesthetic compositions and methods comprising imidazoline compounds” (Warsaw Orthopedic, Inc., priority 2017, dated 2022).
Entries after “also recorded” stand apart in the source; their conditions may differ. Counter-ions that a name gives are not always drawn.

Legend:
sciatic nerve [1] = experiment: Spinal somatosensory evoked potentials (SSEP) after intraneural sciatic injection; format: in vivo, male Sprague Dawley (SD) rats
Protocol: (§1) Methods: Peripheral nerve function was assessed by evoked action potentials (sciatic nerve) as well as spinal somatosensory evoked potentials in male Sprague Dawley (SD) rats. The tibial nerve was stimulated with 10 milliamperes (mA) constant current delivered with platinum micro-electrodes placed proximal to the internal ankle. Recording electrodes were placed near the proximal sciatic nerve at the sciatic notch (ipsilateral and contralateral nerves) and over the L5 interlaminar space. Measurements were obtained with a Biopac MP36 amplifier and data acquisition unit (Biopac Systems, Goleta, Cal). Following collection of baseline data, test solutions were administered directly into the subparaneural compartment of the right sciatic nerve, approximately 0.5 cm proximal to the tibial/fibular bifurcation, using a Hamilton HPLC injection syringe (20 μl, injection volume). Saline served as the negative control and commercial 2% lidocaine for injection served as the positive control.

incisional pain model = conditions: no temporal relationship to systemic exposure; cited from earlier work
sciatic nerve [2] = experiment: Evoked compound action potentials (CAP), ipsilateral sciatic nerve after intraneural injection; format: in vivo, male Sprague Dawley (SD) rats; conditions: for effect of yohimbine pre-administration on elimination of evoked sciatic action potentials by clonidine: 1 mg yohimbine SQ 5 minutes prior to 500 μg intraneural clonidine, HCL
From the text: (§2) It is noted that alpha 2 adrenergic receptors are not expressed along the peripheral axons of the nerve. They are on nerve endings and in the spinal cord, where peripheral nerves synapse with interneurons in the dorsal horn. There also may be receptor-mediated effects on immunoinflammatory cells. […] However, there was no effect on the left sciatic nerve.
2 m Amp stimulation in the ankle causes the action potential to propagate up to the tibial nerves and then the sciatic nerve to the dorsal horn of the spinal cord in the rat model.
as §1
(§3) FIG. 21 depicts representative compound action potential traces (CAP), sciatic nerve. A stimulating electrode delivered 10 mAMP current to the distal tibial nerve near the internal ankle, and a recording electrode was placed near the proximal sciatic nerve (at the sciatic notch). Following baseline recordings (top row), test solution was injected directly into the sciatic nerve (20 μl volume). Evoked compound action potentials at 3 minutes and approximately 50 minutes post-injection appear in the middle and bottom rows, respectively.

[3] = tested on: contralateral sciatic nerve; experiment: Evoked action potentials, contralateral sciatic nerve; format: in vivo, male Sprague Dawley (SD) rats
Protocol: as §2, §1, §3

[4] = intraneural injection, 20 μl, 4 parameter non-linear regression
[5] = commercial 2% lidocaine for injection, 20 μl intraneural

Clc1cccc(Cl)c1N=C1NCCN1 [clonidine, 2,6-dichloro-N-2-imidazolidinyldenebenzenamine]
animals in which spinal somatosensory evoked potentials were eliminated (sciatic nerve [1]; 500 μg intraneural): 3 out of 4 | EC50 for spinal somatosensory evoked potentials (sciatic nerve [1]; [4]): 118 µg | skin concentrations associated with analgesic effect (incisional pain model): ≥ 10 ng/g | effect on CAP amplitude (sciatic nerve [2]; 50 μg intraneural): no discernable effect | time through which sciatic evoked potential amplitude differed from control (p<0.05) (sciatic nerve [2]; 100 μg): 7 min | effect on action potential (CAP) amplitude (sciatic nerve [2]; 100 μg intraneural, versus control, 3 minutes): significant reduction; also recorded: significantly blunted | time through which sciatic evoked potential amplitude differed from control (p<0.05) (sciatic nerve [2]; 200 μg): 18 min | effect on action potential (CAP) amplitude (sciatic nerve [2]; 200 μg intraneural): significantly greater reduction | effect on action potential (CAP) amplitude (sciatic nerve [2]; 200 μg intraneural, listed as clonidine HCL): virtually eliminated | time through which sciatic evoked potential amplitude differed from control (p<0.05) (sciatic nerve [2]; 500 μg): 35 min | effect on compound action potentials in the ipsilateral sciatic nerve (sciatic nerve [2]; 500 μg intraneural): reliably eliminated | doses at which an anesthetic like effect was observed (sciatic nerve [2]; Example 1, clinically relevant doses): < 100 µg | dose injected directly into nerve that eliminates the action potential (sciatic nerve [2]; Example 2, 2 m Amp stimulation in the ankle): ≥ 50 µg | duration of effect (sciatic nerve [2]; Example 2, 500 mcg lasts a lot longer than 50 mcg): proportional to dose | nerve conduction velocity as nerve fibers return to function (sciatic nerve [2]; higher doses): approximately normal | effect on propagation of action potentials, right sciatic nerve (sciatic nerve [2]; injected directly into the right sciatic nerve of the rat (Example 1)): blocked the ability of the nerve to propagate action potentials to the spinal cord | EC50 for evoked compound action potentials in the sciatic nerve (sciatic nerve [2]; [4]): 71 µg | effect on nerve conduction velocity (ipsilateral sciatic nerve) (sciatic nerve [2]; lower doses, fibers that continue to propagate action potentials): modest | effect on the contralateral sciatic nerve ([3]; 500 μg intraneural): no effect | effect on the contralateral sciatic nerve ([3]; any dose of clonidine (50-500 μg), including spinal recordings following contralateral stimulation): not affected | effect on the left sciatic nerve ([3]; injected into the right sciatic nerve (Example 1)): no effect

CCN(CC)CC(=O)Nc1c(C)cccc1C [lidocaine]
time through which sciatic evoked potential amplitude differed from control (p<0.05) (sciatic nerve [2]; 2% lidocaine): 35 min | time for which compound action potentials in the ipsilateral sciatic nerve and spine were eliminated (sciatic nerve [2]; [5]): > 20 min | time over which nerve function recovered (sciatic nerve [2]; positive control 2% lidocaine (Example 1)): approximately one hour | effect on the contralateral sciatic nerve [3, 5]: did not affect

COC(=O)[C@@H]1[C@H]2C[C@H]3c4[nH]c5ccccc5c4CCN3C[C@@H]2CC[C@@H]1O [yohimbine HCL]
effect of yohimbine pre-administration on reduction in spinal SEP amplitude by clonidine (sciatic nerve [1]; 1 mg yohimbine prior to 500 μg intraneural clonidine): no effect | effect of yohimbine pre-administration on elimination of evoked sciatic action potentials by clonidine (sciatic nerve [2]): unaffected; also recorded: no effect | effect of yohimbine pre-administration on elimination of evoked sciatic action potentials by clonidine (sciatic nerve [2]; listed as yohimbine): no effect | effect of yohimbine pre-administration on sciatic nerve block duration by clonidine (sciatic nerve [2]; pre-administration t=(−)10 minutes): did not inhibit
